Source: US11000033B2, “Ketone or oxime compound, and herbicide” (NISSAN CHEMICAL CORPORATION, priority 2014, dated 2021)

Tests used:
Format in all cases: in vivo
Chenopodium album = assay: Test Example 5: herbicidal effect by foliage application, plastic box (symbol O); conditions: 320 g/ha, 3 weeks after application
Procedure, shortened: (§1)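 Sowing in sterilized diluvial soil, 14 days' greenhouse growth at 25° C. to 30° C., then uniform small-sprayer foliar application of aqueous emulsion dilution; plants scored three weeks afterwards.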

corn = assay: Test Example 5: effect on crop by foliage application, plastic box (symbol c); conditions: 320 g/ha, 3 weeks after application
Procedure, shortened: (§2)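 Crop seed is sown alongside grass and broadleaf weed species in spots in sterilized diluvial soil, then covered to a depth of about 1.5 cm. Plants grow in a greenhouse kept at 25° C. to 30° C.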

Setaria viridis [1] = assay: Test Example 4: herbicidal effect by soil treatment (symbol G)
Procedure, shortened: (§3)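 Seeds were sown in sterilized diluvial soil, covered with about 1.5 cm of soil, and the soil surface was sprayed with a water-diluted emulsion of the compound at a predetermined rate. Plants grew in a greenhouse at 25° C. to 30° C.; effects were scored visually 3 weeks after application.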

Setaria viridis [2] = assay: Test Example 5: herbicidal effect by foliage application, plastic box (symbol G); conditions: 320 g/ha, 3 weeks after application
Procedure, shortened: as §1

beet = assay: Test Example 5: effect on crop by foliage application, plastic box (symbol f); conditions: 320 g/ha, 3 weeks after application
Procedure, shortened: as §2

Amaranthus retroflexus = assay: Test Example 4: herbicidal effect by soil treatment (symbol N)
Procedure, shortened: as §3

wheat [3] = assay: Test Example 4: effect on crop by soil treatment (symbol e); conditions: for e: wheat, effect on crop grade: application herbicide amount 320 g/ha; for e: wheat, effect grade on crop: 320 g/ha
Procedure, shortened: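 Greenhouse culture at 25° C. to 30° C. followed sowing of seed in spots on sterilized diluvial soil with a soil cover close to 1.5 cm thick.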

rice plant = assay: Test Example 5: effect on crop by foliage application, plastic box (symbol b); conditions: 320 g/ha, 3 weeks after application
Procedure, shortened: as §2

Alopecurus myosuroides = assay: Test Example 5: herbicidal effect by foliage application, plastic box (symbol J); conditions: 320 g/ha, 3 weeks after application
Procedure, shortened: as §1

wheat [4] = assay: Test Example 5: effect on crop by foliage application, plastic box (symbol e); conditions: 320 g/ha, 3 weeks after application
Procedure, shortened: as §2

Leptochloa chinensis = assay: Test Example 3: herbicidal effect by foliage application, Wagner pot (symbol D); conditions: application herbicide amount 320 g/ha
Procedure, shortened: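 Alluvial soil was flooded to a depth of 0.1–0.5 cm, seeded with the weeds and rice, and kept in a greenhouse at 25–30 °C. After 14 days of growth, the foliage received a small-sprayer application of emulsion diluted to the intended rate; injury was rated at 3 weeks.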

[5] = tested on: Echinochloa oryzacola Vasing.; assay: Test Example 2: herbicidal activity, application during weed generation in submerged conditions (symbol A); conditions: Table 23; application herbicide amount 320 g/ha; grade 0-5 by criteria of Test Example 1
Procedure, shortened: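 Weeds emerging under flooded conditions were treated with compound formulated as an emulsion and diluted with water to the intended herbicide amount, poured onto the surface of 4 cm standing water. Seeds had been co-sown in alluvial soil; plants grew at 25° C. to 30° C. and were assessed after 3 weeks.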

[6] = application herbicide amount 320 g/ha

Row | SMILES | O: Chenopodium album, herbicidal effect grade (Chenopodium album) | c: corn, effect on crop grade (corn) | G: Setaria viridis, herbicidal effect grade (Setaria viridis [1]; [6]) | G: Setaria viridis, herbicidal effect grade (Setaria viridis [2]) | f: beet, effect on crop grade (beet) | N: Amaranthus retroflexus, herbicidal effect grade (Amaranthus retroflexus; [6]) | e: wheat, effect on crop grade (wheat [3]) | b: directly sowed rice plant, effect on crop grade (rice plant) | J: Alopecurus myosuroides, herbicidal effect grade (Alopecurus myosuroides) | e: wheat, effect on crop grade (wheat [4]) | herbicidal effect on D (Leptochloa chinensis), grade 0-5 (Leptochloa chinensis) | O: Chenopodium album, herbicidal effect (criteria 0-5) (Chenopodium album) | c: corn, effect on crop (criteria 0-5) (corn) | G: Setaria viridis, herbicidal effect (criteria 0-5) (Setaria viridis [2]) | f: beet, effect on crop (criteria 0-5) (beet) | e: wheat, effect grade on crop (wheat [3]) | Herbicidal effect grade, A: Echinochloa oryzacola Vasing. [5] | b: directly sowed rice plant, effect on crop (criteria 0-5) (rice plant) | J: Alopecurus myosuroides, herbicidal effect (criteria 0-5) (Alopecurus myosuroides) | e: wheat, effect on crop (criteria 0-5) (wheat [4]) | other results
1 | CCOC(=O)C(C(=O)CC1CC1)C1CC(O)=C(c2c(C)cc(C)cc2C)C1=O (stereo not drawn) [2-025] | 0 (Herbicidal ratio of 5% or lower (almost no effect)) | 1 (Herbicidal ratio of 5% or higher and lower than 20%) | 5 (Herbicidal ratio of 90% or more (almost completely withered)) | 5 (Herbicidal ratio of 90% or more (almost completely withered)) | 0 (Herbicidal ratio of 5% or lower (almost no effect)) | 0 (Herbicidal ratio of 5% or lower (almost no effect)) | 0 (Herbicidal ratio of 5% or lower (almost no effect)) | 4 (Herbicidal ratio of 70% or higher and lower than 90%) | 4 (Herbicidal ratio of 70% or higher and lower than 90%) | 0 (Herbicidal ratio of 5% or lower (almost no effect)) | 1 (Herbicidal ratio of 5% or higher and lower than 20%) | – | – | – | – | – | – | – | – | – | –
2 | CON=C(C)CC1CC(OC(=O)N2CCCC2)=C(c2c(C)cc(C)cc2C)C1=O (stereo not drawn) [1-150] | – | – | – | – | – | – | – | – | – | – | 4 (Herbicidal ratio of 70% or higher and lower than 90%) | 0 (Herbicidal ratio of 5% or lower (almost no effect)) | 4 (Herbicidal ratio of 70% or higher and lower than 90%) | 4 (Herbicidal ratio of 70% or higher and lower than 90%) | 0 (Herbicidal ratio of 5% or lower (almost no effect)) | 1 (Herbicidal ratio of 5% or higher and lower than 20%) | 5 (Herbicidal ratio of 90% or more (almost completely withered)) | 5 (Herbicidal ratio of 90% or more (almost completely withered)) | 5 (Herbicidal ratio of 90% or more (almost completely withered)) | 4 (Herbicidal ratio of 70% or higher and lower than 90%) | G: Setaria viridis, herbicidal effect grade (Setaria viridis [1]; 320 g/ha): 0 (Herbicidal ratio of 5% or lower (almost no effect))
3 | CON=C(C)CC1CC(O)=C(c2c(C)cc(C(C)=O)cc2C)C1=O (stereo not drawn) [6-026] | 0 (Herbicidal ratio of 5% or lower (almost no effect)) | 5 (Herbicidal ratio of 90% or more (almost completely withered)) | 4 (Herbicidal ratio of 70% or higher and lower than 90%) | 5 (Herbicidal ratio of 90% or more (almost completely withered)) | 0 (Herbicidal ratio of 5% or lower (almost no effect)) | 2 (Herbicidal ratio of 20% or higher and lower than 40%) | 0 (Herbicidal ratio of 5% or lower (almost no effect)) | 5 (Herbicidal ratio of 90% or more (almost completely withered)) | 5 (Herbicidal ratio of 90% or more (almost completely withered)) | 3 (Herbicidal ratio of 40% or higher and lower than 70%) | 5 (Herbicidal ratio of 90% or more (almost completely withered)) | – | – | – | – | – | – | – | – | – | –
4 | CON=C(C)CC1CC(OC(=O)N2CCCCC2)=C(c2c(C)cc(C)cc2C)C1=O (stereo not drawn) [1-151] | – | – | – | – | – | – | – | – | – | – | 4 (Herbicidal ratio of 70% or higher and lower than 90%) | 0 (Herbicidal ratio of 5% or lower (almost no effect)) | 4 (Herbicidal ratio of 70% or higher and lower than 90%) | 5 (Herbicidal ratio of 90% or more (almost completely withered)) | 2 (Herbicidal ratio of 20% or higher and lower than 40%) | 0 (Herbicidal ratio of 5% or lower (almost no effect)) | 5 (Herbicidal ratio of 90% or more (almost completely withered)) | 4 (Herbicidal ratio of 70% or higher and lower than 90%) | 5 (Herbicidal ratio of 90% or more (almost completely withered)) | 3 (Herbicidal ratio of 40% or higher and lower than 70%) | N: Amaranthus retroflexus, herbicidal effect grade (Amaranthus retroflexus; 320 g/ha): 0 (Herbicidal ratio of 5% or lower (almost no effect))
5 | CON=C(C)CC1CC(OC(=O)OC)=C(c2c(C)cc(C)cc2C)C1=O (stereo not drawn) [1-014] | 3 (Herbicidal ratio of 40% or higher and lower than 70%) | 5 (Herbicidal ratio of 90% or more (almost completely withered)) | – | 5 (Herbicidal ratio of 90% or more (almost completely withered)) | 3 (Herbicidal ratio of 40% or higher and lower than 70%) | – | – | 5 (Herbicidal ratio of 90% or more (almost completely withered)) | 5 (Herbicidal ratio of 90% or more (almost completely withered)) | 5 (Herbicidal ratio of 90% or more (almost completely withered)) | 5 (Herbicidal ratio of 90% or more (almost completely withered)) | – | – | – | – | – | 5 (Herbicidal ratio of 90% or more (almost completely withered)) | – | – | – | G (Setaria viridis) herbicidal effect grade (Setaria viridis [1]; [6]): 3 (Herbicidal ratio of 40% or higher and lower than 70%)
6 | CON=C(C)CC1CC(O)=C(c2c(C)cc(C(=O)OC)cc2C)C1=O (stereo not drawn) [6-023] | – | 3 (Herbicidal ratio of 40% or higher and lower than 70%) | 3 (Herbicidal ratio of 40% or higher and lower than 70%) | 5 (Herbicidal ratio of 90% or more (almost completely withered)) | – | 0 (Herbicidal ratio of 5% or lower (almost no effect)) | 0 (Herbicidal ratio of 5% or lower (almost no effect)) | 5 (Herbicidal ratio of 90% or more (almost completely withered)) | 5 (Herbicidal ratio of 90% or more (almost completely withered)) | 3 (Herbicidal ratio of 40% or higher and lower than 70%) | 5 (Herbicidal ratio of 90% or more (almost completely withered)) | – | – | – | – | – | – | – | – | – | –
